How the values were obtained:
Assay type in all cases: physicochemical
[1] = Assay testing by HPLC of products after sterilisation; conditions: dry heat treatment at temperatures of from 150° C. to 170° C.
Procedure: (§1) Assay testing was performed in duplicate with the key high performance liquid chromatography (HPLC) parameters shown in Table 1.
(§2) The assays and related substances of the products obtained by each of sterilisation techniques A to F were assessed by the HPLC methods described above.

[2] = Impurities determination (related substances) by HPLC of products after sterilisation; conditions: dry heat treatment at temperatures of from 150° C. to 170° C.
Procedure: (§3) Impurities determination was performed in duplicate with the key high performance liquid chromatography (HPLC) parameters shown in Table 2.
as §2

[3] = Overall assessment of products (assay and related substances) after sterilisation
Procedure: as §1, §3, §2

changes in assay [1]: no significant changes
changes in purity [2]: no significant changes
changes observed (assay and related substances) ([3]; technique C: dry heat treatment of dry powder, 150° C. for 150 minutes): No significant changes observed.
changes observed (assay and related substances) ([3]; technique D: dry heat treatment of dry powder, 160° C. for 120 minutes): No significant changes observed.
changes observed (assay and related substances) ([3]; technique E: dry heat treatment of dry powder, 170° C. for 60 minutes): No significant changes observed.
Structure (SMILES): COc1cc2c(cc1OC)-c1c/c(=N\c3c(C)cc(C)cc3C)n(CCNC(N)=O)c(=O)n1CC2 [micronised ensifentrine, N-(2-{(2E)-9,10-dimethoxy-4-oxo-2-[(2,4,6-trimethylphenyl)imino]-6,7-dihydro-2H-pyrimido [6,1-a]isoquinolin-3(4H)-yl}ethyl) urea]

From patent US12409180B2, “Formulation production process” (Verona Pharma PLC, priority 2022, dated 2025)
